Conditions in one data set: not given
In turn, `Nc1cc(N2CCCCC2)nc(N)[n+]1[O-]` came in with a lipophilicity (logP) of 1.24.
On the same count and under the same terms, for `C1CCCC1` the value was 3; for `CN(C)c1ccc2c(c1)C(=O)N(O)C2=O`, 1.27.
Still for that read-out and setting: for `CCCCCCC1(CC)C(=O)NC(=O)NC1=O` the value was 2.46.
Turning to `CC(=O)C(=Cc1cccc(Cl)c1)C(C)=O`, the logP worked out at 2.26.
Same read-out and setting: as for `CC(=O)Oc1ccc(C)cc1`, the figure is 2.11.
In turn, `NC(=O)c1ccc(C(F)(F)F)cc1` yielded a logP of 1.71.
Still for that read-out and setting: as for `O=NN1CCCC1`, the figure is -0.19; as for `COC(=O)C(Cc1ccc(O)cc1)NC(C)=O` (stereo unspecified), 0.33; as for `O=C(O)COc1ccccc1Br`, 2.04.
`CCOP(=O)(OCC)Oc1ccccc1`: the logP was 1.64.
Still for that read-out and setting: for `Nc1ccnc2c([N+](=O)[O-])cccc12` the value was 1.31.
Turning to `O=C(Nc1ccc([N+](=O)[O-])cc1)c1cccnc1`, the logP stood at 1.82.
On the same count and under the same terms, as for `CC(=O)Nc1ccc(O)c(C(C)(C)C)c1`, the figure is 2.36; as for `CC(=O)Nc1ccc2cccccc1-2`, 2.48.
With `CCCCCCCOC(=O)c1ccc(O)cc1`, the logP was 4.83.
In turn, `O=C(c1ccccc1)c1ccc(NS(=O)(=O)C(F)(F)F)cc1` came in with a logP of 4.28.
On the same count and under the same terms, as for `OCCN1CCN(CCCN2c3ccccc3Sc3ccc(Cl)cc32)CC1`, the figure is 4.2.
The same measure, in the same setting: as for `NNC(=O)c1ccnc(F)c1`, the figure is -0.11.
`Clc1c(Cl)c(Cl)c2n[nH]nc2c1Cl` registered a logP of 4.17.
With `CCCCOCCOCCSC#N`, the logP amounted to 1.68.
Still for that read-out and setting: as for `Cc1ccccc1C=C[N+](=O)[O-]`, the figure is 2.63.
Compound `Nc1cc(Cl)c(Cl)c(Cl)c1` had a logP of 3.32.
Still for that read-out and setting: for `CNC(=O)NC` the value was -0.49; for `CCOP(=S)(OCC)Oc1cc(C)nc(N(CC)CC)n1`, 4.85; for `CCCCNc1nc(NCC)nc(SC(F)F)n1`, 4.51.
The same measure, in the same setting: as for `COc1ccccc1`, the figure is 2.11.
On to `CCOC(=O)C(=Cc1ccc([N+](=O)[O-])cc1)C(=O)OCC`, for which the logP stood at 3.03.
Still for that read-out and setting: as for `CC(=O)Nc1ncnc2c1ncn2C`, the figure is -0.41; as for `C=CCCCCCCC`, 5.15.
Same read-out and setting: for `O=C(c1ccccc1)C(F)(F)F` the value was 2.15.
Still for that read-out and setting: as for `OCc1ccc(O)cc1`, the figure is 0.25.
The compound `Brc1ccc(Br)cc1` had a logP of 3.79.
On the same count and under the same terms, for `CON(C)C(=O)Nc1ccc(F)cc1` the value was 1.46; for `COc1ccc(COC(=O)N(C)C)cc1`, 2.2.
Regarding `O=C(O)c1ccc(O)c(O)c1`, the logP worked out at 0.86.
On the same count and under the same terms, for `CCN(CC)c1nc(Cl)nc(NC(C)C)n1` the value was 3.94; for `CCCC(=O)O[C@H]1[C@H](C)O[C@@H](O[C@H]2[C@H](N(C)C)[C@@H](O)[C@H](O[C@H]3[C@@H](CC=O)C[C@@H](C)[C@@H](O)C=CC=CC[C@@H](C)OC(=O)C[C@@H](O)[C@@H]3OC)O[C@@H]2C)C[C@@]1(C)OC(=O)CC`, 3.08; for `CC(=O)C(=Cc1ccccc1Cl)C(C)=O`, 2.19.
Still for that read-out and setting: for `O=C(O)COc1ccc2c(c1)CCC2` the value was 2.33.
Turning to `CCCOC(N)=O`, the logP was determined as 0.36.
The same measure, in the same setting: as for `COc1ccc(O)cc1`, the figure is 1.58; as for `COc1ccc2[nH]ccc2c1`, 2.06.
On the same count and under the same terms, as for `Nc1ccc(C(=O)Oc2ccc(Cl)cc2)c(O)c1`, the figure is 3.6; as for `CC(=O)N(C)Nc1ccccc1`, 1.31; as for `NC(=O)CCc1ccncc1`, -0.25.
In turn, `Nc1nc(N)nc(-c2cccc(F)c2)n1` showed a logP of 1.73.
On the same count and under the same terms, as for `O=C(O)Cc1cccc(Br)c1`, the figure is 2.37.
Still for that read-out and setting: for `CCC(=O)OC1(c2ccccc2)CC(C)N(C)CC1C` (stereo unspecified) the value was 3.13; for `CCS(=O)(=O)CC`, -0.59.
On the same count and under the same terms, for `CC(C)(C)C(=O)NN` the value was -0.35; for `CCNCCc1cccnc1`, 0.54.
Take `Clc1cc(Cl)c(Cl)c(Cl)c1`: the log partition coefficient (logP) came to 4.56.
Same read-out and setting: for `CN(C)N=Nc1ccc(C(N)=O)cc1` the value was 1.2.
On the same count and under the same terms, for `CC(C)C(=O)NN` the value was -0.63.
Same read-out and setting: as for `FC(F)(F)Cl`, the figure is 1.65; as for `N#C/C=C/c1ccccc1`, 1.96.
The compound `O=C1CN=C(c2ccc(F)cc2)c2cc(Cl)ccc2N1` registered a logP of 2.9.
For the compound `NCc1ccccn1`, the logP is -0.21.
On to `O=C1C(=O)c2cccc3cccc1c23`, for which the logP stood at 1.95.
On the same count and under the same terms, as for `c1ccc2c(c1)OCO2`, the figure is 2.08; as for `O=[N+]([O-])C=Cc1ccco1`, 1.56; as for `NNC(=O)c1ccc(I)cc1`, 1.55.
On the same count and under the same terms, as for `CCOc1cc(C(=O)NN)ccn1`, the figure is 0.48.
On the same count and under the same terms, as for `CN(C)c1ccc(C#N)cc1`, the figure is 2.2.
The compound `COC(=O)c1ccncc1` returned a logP of 0.87.
In turn, `Clc1ccc2nccnc2c1` had a logP of 2.1.
The same measure, in the same setting: as for `CCc1nnc(N)o1`, the figure is -0.3; as for `CC(=O)Oc1ccc(C(N)=O)cc1`, 0.27.
Still for that read-out and setting: for `CN(C)C(N(C)C)=S(I)c1cc(Cl)ccc1Cl` (stereo unspecified) the value was 0.05; for `Oc1ccc(Cl)c(Cl)c1Cl`, 3.8; for `ClC(Cl)=C(Cl)C(Cl)=C(Cl)Cl`, 4.78.
On the same count and under the same terms, for `O=C(Nc1ccc(Cl)cc1)c1cccnc1` the value was 2.52; for `C=CCC1(CC=C)C(=O)NC(=O)N(C)C1=O`, 1.55.
Take `CNC1CC2CCC1c1ccccc12` (stereo unspecified): the logP worked out at 2.68.
Still for that read-out and setting: as for `O=Nc1ccc2ccccc2c1O`, the figure is 2.46; as for `Cc1ccc(C=C(C#N)C#N)cc1`, 2.4.
Same read-out and setting: as for `CN(C)C(=O)OCc1ccc(F)cc1`, the figure is 2.3; as for `Nc1nccc(=O)[nH]1`, -0.99.
With `COc1cc(CC(=O)O)ccc1OC(C)C`, the logP is 1.75.
The same measure, in the same setting: for `CN(C)C(N(C)C)=S(I)c1ccc(C(=O)O)cc1` (stereo unspecified) the value was -1.28; for `Cc1ccccn1`, 1.11.
Same read-out and setting: as for `CCCCOc1cccc(O)c1`, the figure is 3.03; as for `CCCCCCn1nnc2ccccc21`, 3.7; as for `CC(C)c1ccc(OCC(=O)O)cc1`, 2.69.
Still for that read-out and setting: as for `Nc1ccc(N)cc1`, the figure is -0.3.
Compound `Cc1cc(N)ccc1Br` came in with a logP of 2.53.
Still for that read-out and setting: for `N#Cc1sc2c(=O)c3ccccc3c(=O)c=2sc1C#N` the value was 2.84; for `CN(C)C(=O)OCc1cccc(N(C)C)c1`, 2.28; for `COC(=O)CCc1ccccc1`, 2.32.
Same read-out and setting: for `Cc1ccsc1` the value was 2.34.
The same measure, in the same setting: as for `CCOC(=O)CCc1ccccc1`, the figure is 2.73; as for `C=CC`, 1.77; as for `COC(=O)c1ccc(S(I)=C(N(C)C)N(C)C)cc1` (stereo unspecified), -0.74.
For `Cc1[nH]c(=O)n(C(C)(C)C)c(=O)c1Cl`, the logP worked out at 1.89.
With `COc1cccc(OCC(=O)NNC(C)C)c1`, the logP amounted to 1.33.
The same measure, in the same setting: for `O=C(O)COc1cccc(Cl)c1` the value was 2.03; for `CC(=O)CF`, -0.39.
Same read-out and setting: for `CC(N)(Cc1ccc(O)cc1)C(=O)O` (stereo unspecified) the value was -1.89; for `CC(=O)c1ccc2ncccc2c1`, 1.58.
Still for that read-out and setting: as for `CCCNC(=O)c1ccc(S(N)(=O)=O)cc1`, the figure is 0.51; as for `C(=Nc1ccccc1)c1ccccc1`, 2.82.
On to `O=NN(CC(F)(F)F)CC(F)(F)F`, for which the logP worked out at 2.15.
`NC(=O)CCOc1ccccc1` displayed a logP of 0.8.
Consider `NC(CCCc1ccccc1)C(=O)O` (stereo unspecified), for which the logP is -0.36.
Still for that read-out and setting: for `COCc1ccccc1` the value was 1.92; for `NS(=O)(=O)c1ccc2ncccc2c1`, 0.56; for `NCc1cc(O)no1`, -2.39.
The same measure, in the same setting: for `CN(C)CCN(C)S(=O)(=O)c1ccc(C(C)(C)[N+](=O)[O-])c([N+](=O)[O-])c1` the value was 1.42; for `NNC(=O)c1ccccc1[N+](=O)[O-]`, -0.54.
Same read-out and setting: as for `O=[N+]([O-])c1nccn1CC(F)(F)CO`, the figure is 0.04.
For the compound `c1ccc(P(c2ccccc2)c2ccccc2)cc1`, the logP came to 5.69.
Still for that read-out and setting: as for `Clc1ccc(-c2ccc(Cl)cc2Cl)c(Cl)c1`, the figure is 6.29; as for `CC(C(c1ccccc1)c1ccccc1)[N+](=O)[O-]` (stereo unspecified), 3.91; as for `FC(F)(F)c1nc2c(Cl)cc(Cl)c(Cl)c2[nH]1`, 3.78.
The same measure, in the same setting: as for `COCC(=O)Nc1c(I)c(C(=O)NCC(O)CO)c(I)c(C(=O)N(C)CC(O)CO)c1I` (stereo unspecified), the figure is -2.05.
For the compound `CN(C)CCNC(=O)c1ccccc1`, the logP was 1.1.
On the same count and under the same terms, as for `c1cnc2nccnc2c1`, the figure is -0.04; as for `O=C(O)Cc1cccc(Cl)c1`, 2.09.
As for `CN(C)C(=O)OCc1ccc(OCc2ccccc2)cc1`, the logP stood at 3.27.
With `O=C(O)CCCC(=O)O`, the logP is -0.29.
On the same count and under the same terms, as for `OCCCc1ccccn1`, the figure is 0.58; as for `Cc1ncc([N+](=O)[O-])n1CCCl`, 0.88.
As to `NC(=O)C=Cc1ccccc1`, the logP was 1.43.
Same read-out and setting: as for `CC1CCCCN1N=O` (stereo unspecified), the figure is 0.71; as for `CC(=O)Oc1cccc([N+](=O)[O-])c1`, 1.82; as for `Cn1cccc1C=NNC(=S)Nc1ccccc1`, 3.64.
Still for that read-out and setting: for `C=CCN(CC=C)CC=C` the value was 2.59; for `Cc1ccc(C)c2ccccc12`, 4.37; for `COc1cc2c(c(OC)c1OC)-c1ccc(OC)c(=O)cc1C(N)CC2` (stereo unspecified), 1.1.
Same read-out and setting: for `COc1ccc(N(CCCC(=O)O)C(=O)c2ccc(Cl)cc2)cc1` the value was 2.7; for `ICCI`, 2.71; for `Oc1ccc(O)cc1`, 0.59.
With `O=C(O)CCc1c[nH]c2ccccc12`, the logP was 1.75.
The same measure, in the same setting: for `CCN(CC)CCc1cccnc1` the value was 1.23; for `c1ccc(-c2ncncn2)cc1`, 1.93.
Still for that read-out and setting: for `CCN(CC)CCNC(=O)c1ccccc1OC` the value was 1.98; for `C[Si](C)(C)Cc1ccccc1`, 4.13.
In turn, `CSc1cccc(-c2nc(N)nc(N)n2)c1` showed a logP of 2.16.
With `C(=C\c1ccccc1)/c1ccccc1`, the log partition coefficient (logP) is 4.81.

Staying with this data set, now noted: pH 7.4.
Compound `O=C(O)CCCc1ccc(N(CCCl)CCCl)cc1` had a logD of 1.7.

The record behind these values is the OPERA property sets (Mansouri et al. 2018).
